Patent US20040138826A1, “Experimental design and data analytical methods for detecting and characterizing interactions and interaction thresholds on fixed ratio rays of polychemical mixtures and subsets thereof” (priority 2002, published 2004)
Read-outs that look alike come from different tables or passages of the source.

Key:
[1] = tested on: healthy adult rats; conditions: rats; for Mean Motor Activity Response: single chemical
Description: To motivate the use of these fixed-ratio mixture ray designs consider a study which examines exposure to environmentally relevant pesticides. The OP pesticides chosen for study, based on usage patterns (i.e. pesticides used on same or similar crops) and market share (i.e. highest volume pesticides), were acephate, diazinon, chlorpyrifos, dimethoate, and malathion. Motor activity, a count of the number of passes made across a central area, was used to assess toxicity in healthy adult rats. A full five-pesticide fixed-ratio ray, given by (0.040:0.002:0.031:0.102:0.825) for (acephate:diazinon:chlorpyrifos:dimethoate:malathion), was chosen based on relative dietary exposure estimates of each chemical as projected by the U.S. EPA Dietary Exposure Evaluation Model (DEEM).
Single chemical data were collected approximately 18 months prior to the data along the full fixed-ration ray.
Fixed-ratio ray designs were chosen to study interactions among combinations of multiple pesticides. The pesticides chosen for these studies, based on usage patterns (i.e., pesticides used on the same or similar crops) and market share (i.e., highest volume pesticides), were acephate, diazinon, chlorpyrifos, dimethoate, and malathion. Motor activity, a count of the number of passes made across a central area, was chosen to assess the toxicity of these pesticides in healthy adult rats. The fixed-ratio ray under study was chosen based on the relative dietary exposure estimates of each chemical as projected by the U.S. EPA Dietary Exposure Evaluation Model (DEEM) and is given by (0.040:0.002:0.031:0.102:0.825) for acephate, diazinon, chlorpyrifos, dimethoate, and malathion respectively.
The five-pesticide study described in the introduction is used to illustrate the sample size and power methods developed in Section 3. Due to the high potential of aggregate exposure to OP pesticides, researchers were initially interested in testing the hypothesis of additivity, given in (5), along the full five-pesticide fixed-ratio ray, given by (0.040:0.002:0.031:0.102:0.825) for ([…]), that represents relative dietary exposure estimates. Single chemical data were collected and used to estimate an additivity model along the ray (analysis not shown). Since, the motor activity response is a count variable it was assumed that V(m)=m and the log link function (McCullagh and Nelder, 1989) was used to fit the generalized linear additivity model described in Section 2. […] Eighty-six animals were considered. Fourteen animals were evaluated in the control group. Twelve animals each were evaluated at 10, 55, 100, 200, 300, and 450 mg/kg. Summary statistics for the single chemical and mixture data are provided in the appendix.
The five-pesticide study described in the introduction is used to illustrate the design methodology developed in the following sections. Due to the high potential for aggregate exposure to OP pesticides, researchers were initially interested in testing the hypothesis of additivity, given in (4), along the full five-pesticide fixed-ratio ray, given by (0.040:0.002:0.031:0.102:0.825) for (acephate:diazinon:chlorpyrifos:dimethoate:malathion). Since motor activity response is a count variable, it was assumed that V(μ)=μ and the log link function (McCullagh and Nelder, 1989) was used to fit the generalized linear additivity model given in (1). […] Eighty-six animals were considered. Fourteen animals were evaluated in the control group. Twelve animals each were evaluated at 10, 55, 100, 200, 300, and 450 mg/kg.

[2] = tested on: rats; conditions: single chemical data, rats
Description: The endpoint of interest is neurotoxicity in rats as measured by a gait score dichotomized to indicate presence or absence of a gait abnormality (i.e., incoordination, loss of balance, etc.). The fixed-ratio ray under study was chosen based on the relative dietary exposure estimates of each chemical as projected by the U.S. EPA Dietary Exposure Evaluation Model (DEEM) and is given by (0.040:0.002:0.031:0.825:0.102) for ACE, DIA, CPF, MAL, DIM, respectively. […] (Note: Such a strategy can be extended for identifying the impact of the unidentified fraction in a complex mixture.)
The biological endpoint of interest is an indicator of neurotoxicity based on evidence of the presence or absence of a gait abnormality (Moser, 1995). In order to appropriately constrain the probability of a response to be between 0 and 1, a logit link function was used, i.e., g(μ)=log(μ/(1−μ)). It was assumed throughout that the variance changes as a binomial random variable such that Var(Y)=τμ(1−μ) (e.g., McCullagh and Nelder, 1989).
The resulting mixture experiment consisted of a vehicle control (n=14), ‘positive controls’ for ACE alone (6 and 30 mg/kg; n=6, 14, respectively), CPF alone (10, 20, 30 mg/kg; n=6, 8, 6, respectively), DIAZ alone (50 and 125 mg/kg; n=6, 14, respectively), MAL alone (350 mg/kg; n=14), DIM alone (10, 25, 50 mg/kg; n=6, 8, 6, respectively), and six total dose mixture concentrations (10, 55, 100, 200, 300 and 450 mg/kg; n=12 rats per dose group for a total of 72 rats exposed to a mixture of the chemicals) at a fixed mixing ratio ray of (0.040:0.002:0.031:0.825:0.102) for (ACE:DIA:CPF:MAL:DIM). Similarly, the design for a second fixed-ratio ray was based on a reduced number of the pesticides (omitting MAL) with the remaining pesticides at the same relative proportions as in the ‘full’ mixture study. The experiment consisted of a vehicle control (n=8), positive controls (n=8 per group) for ACE (30 mg/kg), CPF (20 mg/kg), DIA (125 mg/kg), and DIM (25 mg/kg), and six total dose mixture concentrations (1.75, 9.6, 17.5, 35, 52.5, and 78.8 mg/kg; n=12 rats per dose group) at a fixed mixing ratio ray of (0.229:0.011:0.177:0.583) for (ACE:DIA:CPF:DIM). Casey et al (2003a,b) describe the motor activity data in the mixture of these five pesticides.

[3] = tested on: female CD-1 mice; experiment: Liver damage by serum sorbitol dehydrogenase (SDH) after 14 days oral gavage of trihalomethane DBPs; conditions: for Estimate of slope parameter γi, additivity model for SDH response: generalized linear model with power link, λ = 0.5, single chemical data only, female CD-1 mice, 14 days oral gavage; for Mean SDH (STD): positive control
Description: The mixture selected for the study used to illustrate the methodology proposed here is that of four trihalomethanes formed as disinfection by-products (DBPs) when water is chlorinated. […] The endpoint of interest is liver damage, as measured by serum sorbitol dehydrogenase (SDH) levels in female CD-1 mice after 14 days of exposure by oral gavage. Seven separate experiments were conducted: four single chemical studies and three mixture studies. A more complete description of the experimental methods is provided in Gennings, et al. (1997; 2000). […] The fixed mixing ratio of interest is associated with the chlorination process of disinfection (McDonald et al., 1999). The purpose of this study was to determine if the four DBPs combine additively, i.e., with no interaction.
The data used to illustrate the methodology developed in the following sections involves the combination of four chemicals, which are disinfection by-products in drinking water. Summary statistics for the single chemical data are provided in Gennings et al. (1997, 2000). A generalized linear model with a power link function, [formula]
After the single chemical studies were completed, three mixture studies were conducted. […] In order to verify that the dose-response relationship was consistent across the different studies, the additivity model given in (1) was used to predict the response for each of the positive control groups. […] The p-value is associated with the Wald-type test for equivalence of the two means.
The objective of this paper is to develop a method for testing for departure from additivity when the single chemical data cannot be used to describe the no interaction case. The mixture data of interest are assumed to result from a fixed-ratio ray design.

[4] = tested on: normal human epidermal keratinocytes (NHEK); conditions: for LD50 (estimated): Example 6; for LD50 (50% cell killing in individual cytotoxicity assays): predetermined, Example 5; for Sample Mean (% viability): single metal, 24 hr
Description: Cells and culture conditions. Cryopreserved, pooled normal human epidermal keratinocytes (NHEK) were purchased from the Clonetics Corp. (San Diego, Calif.). NHEK cells were grown in defined Keratinocyte Growth Medium-KGM™ (Clonetics).
Cytotoxicity analyses. For toxicity studies, cells were plated at a density of 2,500 cells/cm^2 in 6-well plastic tissue culture plates and grown for 24 hr before metal treatment. Triplicate wells of cells were treated with increasing concentrations of As, Cr, Cd, Pb, or a mixture of the four metals for 24 hr. Concentrations used for As and Cr were 0.3, 1, 3, 10 , and 100 mM. The Cr stock was made by mixing a 1:1 ratio of trivalent and hexavalent chromium. Cd and Pb were administered at 3, 10, 30, 100, and 300 mM. […] The concentrations of these three metals in the 1× mixture solution was 7.7 mM As, 4.9 mM Cr, 6.1 mM Cd. […] This 1× solution was serially diluted at a 1:3 ratio to get 0.333, 0.111, 0.037, 0.0123, 0.004, and 0.0014 dilution groups. Double deionized water was used as the vehicle control in all cases. After exposure to the individual metals or metal mixture, cells were refed with fresh metal-free KGM medium and incubated for 3 days prior to viability analysis by the MTT assay.
MTT assay. The MTT assay was carried out using a modification of the method of Mosmann (1983). MTT was dissolved at 5 mg/ml in 1× PBS [phosphate-buffered saline]. This stock solution was filtered through a […] and stored at 4° C. Immediately before use, the stock solution was diluted to 0.5 mg/ml with serum-free KGM to make a working solution. Working solution (1 ml) was added to each well of cells after aspiration of medium. Cells were incubated at 37° C. for 3 hr, after which time, the MTT was removed by aspiration. Cells were subsequently lysed by addition of 0.5 ml of dimethyl sulfoxide (DMSO). The absorbence at 550 nm of samples as well as a DMSO blank was read on a Microplate Autoreader (Bio-Tek Instruments, Inc, Winooski, Vt.). The absorbance of the DMSO blank was subtracted from all values. All absorbance values were standardized to the water vehicle control.
The methodology introduced in this paper is illustrated with cytotoxicity data obtained from assessing interactions among arsenic (As), cadmium (Cd), chromium (Cr), and lead (Pb) in human keratinocytes. The experimental data were obtained from Ray Yang and colleagues at Colorado State University. The endpoint of interest is the percent viability of treated NHEK cells using the MTT assay. […] This 1× solution was serially diluted at a 1:3 ratio to get 0.333, 0.111, 0.037, 0.0123, 0.004, and 0.0014 dilution groups. Double deionized water was used as the vehicle control in all cases.
After exposure to individual metals or metal exposure, cells were refed with fresh metal-free KGM medium and incubated for 3 days prior to viability analysis by the MTT assay. Details of the experimental protocol and methods are described elsewhere (24, 1) and are not included here.

[5] = 1.52 mM/kg, mixture study = 0.05 total dose
[6] = 1.52 mM/kg, mixture study = 1.5 total dose
[7] = 1.52 mM/kg, mixture study = 3.0 total dose

| SMILES | Estimate of slope parameter γi, additivity model for SDH response [3] | Mean SDH (STD) [3, 5] | Mean SDH (STD) [3, 6] | Mean SDH (STD) [3, 7] | LD50 (estimated) [4] [µM] | Sample Mean (% viability) ([4]; dose 3 (mM)) | Sample Mean (% viability) ([4]; dose 10 (mM)) | Sample Mean (% viability) ([4]; dose 30 (mM)) | further results |
| --- | --- | --- | --- | --- | --- | --- | --- | --- | --- |
| COP(=O)(NC(C)=O)SC (centres unmarked) [Acephate, acephate] |  |  |  |  |  |  |  |  | Threshold Estimate ([1]; dose threshold for motor activity, threshold additivity model, SAR analysis): 6.30 mg/kg; Mean Motor Activity Response ([1]; dose 3 mg/kg): 200.13; Mean Motor Activity Response ([1]; dose 10 mg/kg): 165.88; Mean Motor Activity Response ([1]; dose 30 mg/kg): 108.75; Mean Motor Activity Response ([1]; dose 60 mg/kg): 58.25; Mean Motor Activity Response ([1]; dose 120 mg/kg): 33.25; effect when given alone on gait abnormality [2]: significant effect on a gait abnormality |
| ClC(Cl)Br [BDCM, bromodichloromethane] | 3.567 | 107.3 (97.5) | 56.0 (17.4) | 48.8 (23.3) |  |  |  |  |  |
| ClC(Br)Br [CDBM, chlorodibromomethane] | 3.833 |  |  |  |  |  |  |  | Mean SDH (STD) ([3]; 0.76 mM/kg, mixture study = 0.05 total dose): 38.0 (11.2); Mean SDH (STD) ([3]; 0.76 mM/kg, mixture study = 1.5 total dose): 28.1 (6.7); Mean SDH (STD) ([3]; 0.76 mM/kg, mixture study = 3.0 total dose): 19.3 (3.6) |
| BrC(Br)Br [CHBr3, bromoform] | 2.441 | 64.0 (27.8) | 56.0 (24.8) | 86.4 (89.2) |  |  |  |  |  |
| ClC(Cl)Cl [CHCl3, chloroform] | 1.538 | 63.1 (34.9) | 46.6 (21.5) | 24.3 (5.8) |  |  |  |  |  |
| [Cl][Cd][Cl] [Cadmium, cadmium chloride] |  |  |  |  | 6.1 | 92.6 | 51.9 | 20.2 | LD50 (50% cell killing in individual cytotoxicity assays) [4]: 6.1 mM; Sample Mean (% viability) ([4]; dose 100 (mM)): 3.8 % viability; Sample Mean (% viability) ([4]; dose 300 (mM)): 4.6 % viability |
| [Cr] [Chromium] |  |  |  |  | 4.9 | 79.8 | 23.9 | 6.6 | LD50 (50% cell killing in individual cytotoxicity assays) [4]: 4.9 mM; Sample Mean (% viability) ([4]; dose 0.3 (mM)): 105.1 % viability; Sample Mean (% viability) ([4]; dose 1.0 (mM)): 99.7 % viability |
| CC(=O)[O-].CC(=O)[O-].[Pb+2] [Lead, lead acetate] |  |  |  |  | 100 | 95.5 | 91.0 | 98.8 | cell killing ([4]; individual cytotoxicity assay): unable to get complete killing at any dose tested; Sample Mean (% viability) ([4]; dose 100 (mM)): 93.7 % viability; Sample Mean (% viability) ([4]; dose 300 (mM)): 28.9 % viability |
